According to PubChem BioAssay AID1845201 (Molecular Pharmacology Branch, DTP, NCI, 2023):

Tested on: COR L88 complex tumor spheroid viability
Assay: Anticancer human tumor COR L88 cell line growth inhibition;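 further: compound exposure lasted 7 days before viability readout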;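 on viability, T/C: percent of DMSO vehicle-treated spheroids = 100%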
Details: for IC50: curve of first compound; for viability, T/C: stronger effect = lower value
Procedure, shortened: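 Complex spheroids of malignant cells with endothelial cells and mesenchymal stem cells; agents alone or combined, from near clinical Cmax (or 10 microM if unknown) down in half-log steps, 0.25% DMSO final.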

[1] = second compound 30 pM, first compound 0.0949 µM
[2] = second compound 30 pM, first compound 0.3 µM
[3] = second compound 30 pM, first compound 0.949 µM
[4] = second compound 30 pM, first compound 3 µM
[5] = second compound 94.9 pM, first compound 0.0949 µM
[6] = second compound 94.9 pM, first compound 0.3 µM
[7] = second compound 94.9 pM, first compound 0.949 µM
[8] = second compound 94.9 pM, first compound 3 µM
[9] = second compound 0.0003 µM, first compound 0.0949 µM
[10] = second compound 0.0003 µM, first compound 0.3 µM
[11] = second compound 0.0003 µM, first compound 0.949 µM
[12] = second compound 0.0003 µM, first compound 3 µM
[13] = second compound 0.000949 µM, first compound 0.0949 µM
[14] = second compound 0.000949 µM, first compound 0.3 µM
[15] = second compound 0.000949 µM, first compound 0.949 µM
[16] = second compound 0.000949 µM, first compound 3 µM
[17] = second compound 0.003 µM, first compound 0.0949 µM
[18] = second compound 0.003 µM, first compound 0.3 µM
[19] = second compound 0.003 µM, first compound 0.949 µM
[20] = second compound 0.003 µM, first compound 3 µM

CC(C)n1c(=O)n(C)c2cnc3cc(F)c(-c4ccc(OCCCN5CCCCC5)nc4)cc3c21 + CC[C@@]1(O)C(=O)OCc2c1cc1n(c2=O)Cc2cc3c(CN(C)C)c(O)ccc3nc2-1
IC50 (second compound 0.003 µM): 5.16 µM
IC50 (second compound 0.00949 µM): 0.157 µM
IC50 (second compound 0.03 µM): < 0.0316 µM
IC50 (second compound 0.0949 µM): < 0.0316 µM
IC50 (second compound 0.3 µM): < 0.0316 µM
viability, T/C (second compound 0.003 µM, first compound 0.0316 µM): 85%
viability, T/C (second compound 0.003 µM, first compound 0.1 µM): 94.2%
viability, T/C (second compound 0.003 µM, first compound 0.316 µM): 76.9%
viability, T/C (second compound 0.003 µM, first compound 1 µM): 80.6%
viability, T/C (second compound 0.003 µM, first compound 3.16 µM): 68.2%
viability, T/C (second compound 0.003 µM, first compound 10 µM): 26.9%
viability, T/C (second compound 0.00949 µM, first compound 0.0316 µM): 51.9%
viability, T/C (second compound 0.00949 µM, first compound 0.1 µM): 52.9%
viability, T/C (second compound 0.00949 µM, first compound 0.316 µM): 48.2%
viability, T/C (second compound 0.00949 µM, first compound 1 µM): 40.6%
viability, T/C (second compound 0.00949 µM, first compound 3.16 µM): 33%
viability, T/C (second compound 0.00949 µM, first compound 10 µM): 14.1%
viability, T/C (second compound 0.03 µM, first compound 0.0316 µM): 46.5%
viability, T/C (second compound 0.03 µM, first compound 0.1 µM): 42.1%
viability, T/C (second compound 0.03 µM, first compound 0.316 µM): 37.3%
viability, T/C (second compound 0.03 µM, first compound 1 µM): 29.7%
viability, T/C (second compound 0.03 µM, first compound 3.16 µM): 30.6%
viability, T/C (second compound 0.03 µM, first compound 10 µM): 14.2%
viability, T/C (second compound 0.0949 µM, first compound 0.0316 µM): 38.6%
viability, T/C (second compound 0.0949 µM, first compound 0.1 µM): 36.4%
viability, T/C (second compound 0.0949 µM, first compound 0.316 µM): 30.2%
viability, T/C (second compound 0.0949 µM, first compound 1 µM): 28.6%
viability, T/C (second compound 0.0949 µM, first compound 3.16 µM): 27.2%
viability, T/C (second compound 0.0949 µM, first compound 10 µM): 15.3%
viability, T/C (second compound 0.3 µM, first compound 0.0316 µM): 44.3%
viability, T/C (second compound 0.3 µM, first compound 0.1 µM): 42.7%
viability, T/C (second compound 0.3 µM, first compound 0.316 µM): 39%
viability, T/C (second compound 0.3 µM, first compound 1 µM): 34.5%
viability, T/C (second compound 0.3 µM, first compound 3.16 µM): 27.7%
viability, T/C (second compound 0.3 µM, first compound 10 µM): 14.7%

Cn1ncnc1[C@H]1c2n[nH]c(=O)c3cc(F)cc(c23)N[C@@H]1c1ccc(F)cc1 + COc1cc2c(cc1O)CCNC21CSC2c3c(OC(C)=O)c(C)c4c(c3C(COC1=O)N1C(O)C3Cc5cc(C)c(OC)c(O)c5C(C21)N3C)OCO4
IC50 (second compound 30 pM): 0.255 µM
IC50 (second compound 94.9 pM): 0.12 µM
IC50 (second compound 0.0003 µM): 0.0401 µM
IC50 (second compound 0.000949 µM): < 0.00949 µM
IC50 (second compound 0.003 µM): < 0.00949 µM
viability, T/C (second compound 30 pM, first compound 0.00949 µM): 90.9%
viability, T/C (second compound 30 pM, first compound 0.03 µM): 72.8%
viability, T/C [1]: 58.9%
viability, T/C [2]: 47.3%
viability, T/C [3]: 43.9%
viability, T/C [4]: 37.3%
viability, T/C (second compound 94.9 pM, first compound 0.00949 µM): 77.1%
viability, T/C (second compound 94.9 pM, first compound 0.03 µM): 61.3%
viability, T/C [5]: 50.5%
viability, T/C [6]: 45.8%
viability, T/C [7]: 42.5%
viability, T/C [8]: 38.5%
viability, T/C (second compound 0.0003 µM, first compound 0.00949 µM): 57.9%
viability, T/C (second compound 0.0003 µM, first compound 0.03 µM): 51.9%
viability, T/C [9]: 46.1%
viability, T/C [10]: 43.6%
viability, T/C [11]: 39.4%
viability, T/C [12]: 41%
viability, T/C (second compound 0.000949 µM, first compound 0.00949 µM): 53.6%
viability, T/C (second compound 0.000949 µM, first compound 0.03 µM): 45%
viability, T/C [13]: 44.2%
viability, T/C [14]: 36.2%
viability, T/C [15]: 13.9%
viability, T/C [16]: 2.75%
viability, T/C (second compound 0.003 µM, first compound 0.00949 µM): 1.06%
viability, T/C (second compound 0.003 µM, first compound 0.03 µM): 0.96%
viability, T/C [17]: 0.96%
viability, T/C [18]: 0.79%
viability, T/C [19]: 1.64%
viability, T/C [20]: 2.68%

O=C(c1cc(Cc2n[nH]c(=O)c3ccccc23)ccc1F)N1CCN(C(=O)C2CC2)CC1 + COc1cc2c(cc1O)CCNC21CSC2c3c(OC(C)=O)c(C)c4c(c3C(COC1=O)N1C(O)C3Cc5cc(C)c(OC)c(O)c5C(C21)N3C)OCO4
IC50 (second compound 30 pM): 14.5 µM
IC50 (second compound 94.9 pM): 11.3 µM
IC50 (second compound 0.0003 µM): > 30 µM
IC50 (second compound 0.000949 µM): 0.683 µM
IC50 (second compound 0.003 µM): < 0.0949 µM
viability, T/C [1]: 93.6%
viability, T/C [2]: 107%
viability, T/C [3]: 95%
viability, T/C [4]: 81.7%
viability, T/C (second compound 30 pM, first compound 9.49 µM): 54.6%
viability, T/C (second compound 30 pM, first compound 30 µM): 42.4%
viability, T/C [5]: 98.9%
viability, T/C [6]: 96.4%
viability, T/C [7]: 101%
viability, T/C [8]: 71.8%
viability, T/C (second compound 94.9 pM, first compound 9.49 µM): 54.9%
viability, T/C (second compound 94.9 pM, first compound 30 µM): 43%
viability, T/C [9]: 74.9%
viability, T/C [10]: 63.4%
viability, T/C [11]: 64.1%
viability, T/C [12]: 60.6%
viability, T/C (second compound 0.0003 µM, first compound 9.49 µM): 48.5%
viability, T/C (second compound 0.0003 µM, first compound 30 µM): 56.8%
viability, T/C [13]: 57.2%
viability, T/C [14]: 56.2%
viability, T/C [15]: 42.6%
viability, T/C [16]: 40.7%
viability, T/C (second compound 0.000949 µM, first compound 9.49 µM): 13.7%
viability, T/C (second compound 0.000949 µM, first compound 30 µM): 2.22%
viability, T/C [17]: 1.02%
viability, T/C [18]: 1.05%
viability, T/C [19]: 0.95%
viability, T/C [20]: 1.92%
viability, T/C (second compound 0.003 µM, first compound 9.49 µM): 2.21%
viability, T/C (second compound 0.003 µM, first compound 30 µM): 3.25%
